Laboratory results reported in patent publication US20230257430A1, “RECOMBINANT PROTEINS FOR QUANTIFICATION OF PROTEIN LEVELS” (Genentech, Inc., priority 2020, published 2023).
Peptide text beside a SMILES is read from it. * marks the point of attachment. Cbz = O=C(OCc1ccccc1)*; CH2F = FC*

Assays:
Assay type in all cases: cell-based, human
[1] = tested on: A549 parental, ARAF KO, BRAF KO, RAF1 (CRAF) KO cancer cells; assay: Soft agar colony formation growth assay with pan-RAF inhibitor in RAF-depleted RASK (KRAS) mutant cells; conditions: 100 nM, 1 μM, 10 μM
Protocol: FIG. 4J is a set of photomicrographs showing the results of a soft agar colony formation growth assay for A549 cells (parental) or ARAF knockout (KO), BRAF KO, or RAF1 (CRAF) KO cancer cells treated with the pan-RAF inhibitor AZ-628 at 100 nm, 1 μM, and 10 μM concentrations. Colonies were stained with MTT dye and imaged using a GelCount imager.
FIG. 6G is a set of photomicrographs showing the results of a soft agar colony formation growth assay for the indicated cancer cells treated with non-targeting shRNAs (shNT) or shRNA targeting ARAF (shARAF), BRAF (shBRAF), or RAF1 (CRAF) (shCRAF) and treated with the pan-RAF inhibitor AZ-628 at 100 nm, 1 μM, and 10 μM concentrations or a DMSO control.
It was hypothesized that the ratio of RAF1 (CRAF):ARAF versus RAF1 (CRAF):BRAF heterodimers may be important in the growth of RASK (KRAS) mutant tumors, and that this ratio may impact the efficacy of RAF kinase inhibition. To test this hypothesis, RASK (KRAS) mutant cells depleted of individual members of the RAF kinases (ARAF, BRAF or RAF1 (CRAF)) were treated with a pan-RAF dimer inhibitor (AZ-628). […] Taken together, RAF1 (CRAF) dimerization partners appear to dictate sensitivity to MAPK inhibition.

[2] = tested on: A549 RAF1 (CRAF) knockout (CRAF KO) cancer cells; assay: Soft-agar colony formation assay in A549 RAF1 (CRAF) knockout cells with MEK or ERK inhibitor dose titration; conditions: for cell survival of RAF1 (CRAF)-depleted cells: increasing the dose; for cell survival of RAF1 (CRAF) ablated RASK (KRAS) mutant cells: low-dose treatment
Text: (§1) FIG. 11F is a set of photomicrographs showing the results of a soft-agar colony formation assay in A549 parental and RAF1 (CRAF) knockout (CRAF KO) cancer cells upon treatment with DMSO or a MEK inhibitor (GDC-0973) at the indicated dose titrations. The colonies were labeled with MTT reagent and imaged using a GelCount imager.
as §1, with “11G” for “11F”, “an ERK” for “a MEK”, “(GDC-0994)” for “(GDC-0973)”
Within the MAPK pathway, expression of BRAF^D631A mutation upon BRAF^wild-type loss induces cellular toxicity which impedes tumor development of RASK (KRAS) mutant lung tumors (Nieto et al., Nature, 548: 239-243, 2017; Yao et al., Nature, 548: 234-238, 2017). Importantly, pharmacological inhibition of ERK rescued tumor growth in this context (Nieto et al., Nature, 548: 239-243, 2017; Yao et al., Nature, 548: 234-238, 2017). […] Thus, oncogenic cellular stress induced by ARAF catalytic activity could be inhibited by low-dose MAPK inhibition, thereby promoting survival of RASK (KRAS) mutant cells.

MAPK signaling = assay: Western blot analysis of MAPK pathway components in RASK (KRAS) mutant cancer cells; conditions: 250 nM, 24 hours
[3] = tested on: CRAF:BRAF and CRAF:ARAF dimers; assay: PIKES targeted analysis (PRM-MS) of immunoprecipitated FLAG-tagged CRAF wild-type; conditions: 250 nM, 24 hours
Text: Collected eluates were then combined with 100 fmol of QconCAT reagent and samples were processed similarly to the cell line analysis above for PRM analysis. For PRM analysis, RAW files were loaded onto Skyline (v19.1). A target peptide list was generated from the QconCAT peptides for both unlabeled and heavy-labeled peptides with transition setting filtered for precursor charges 2 and 3, ion charges 1 and 2, and y-ion types. Selected peaks from product ions were reviewed manually. Both MS1 and MS/MS filtering were set to Orbitrap mass analyzer with 60,000 resolving power. Signal was summed for the top three product ions and normalized to the heavy labeled QconCAT internal standard for peptide quantification.
RAF1:BRAF heterodimers = assay: Immunoprecipitation of FLAG-tagged RAF1 (CRAF) in A549 RAF1 (CRAF) knockout cells; conditions: 250 nM, 24 hours
Text: Eluates were co-immunoprecipitated and blotted with the indicated antibodies.
To test whether RAF1 (CRAF) kinase activity is required for RASK (KRAS) mutant tumor cell growth, knockout cell lines of the three RAF isoforms were generated in a RASK (KRAS) mutant background. […] In the RAF1 (CRAF) knockout RASK (KRAS) mutant cells, stable expression of a panel of RAF1 (CRAF) mutants was established. […] Expression of RAF1 (CRAF) kinase-dead mutants including RAF1^D468N, RAF1^D486A, and RAF1^K375M(CRAF^D468N, CRAF^D486A, and CRAF^K375M) reduced pERK levels compared to cells expressing RAF1^wild-type (CRAF^wild-type) or RAF1^S259A (CRAF^S259A), a mutation which renders the RAF1 (CRAF) kinase constitutively active (FIG. 5C). RAF1 (CRAF) kinase-dead mutants either partially (RAF1^D468N (CRAF^D468N), RAF1^D486A(CRAF^D486A)) or fully (RAF1^K375M (CRAF^K375M)) rescued colony growth in RAF1 (CRAF)-deficient RASK (KRAS) mutant cells (FIGS. 4B and 5D). […] Functionally, the CRAF^K375M mutation completely abrogated MEK phosphorylation compared to CRAF^wild-type, but still rescued colony growth in RAF1-deficient RASK (KRAS) mutant cells (FIGS. 4C and 5C). […] Consistent with this, RAF1 (CRAF) kinase-dead mutants behaved like the RAF1 (CRAF) knockout, and were unable to rescue cell growth inhibition in the presence of MEK inhibitor compared to the cells expressing CRAF^wild-type (FIGS. 5E and 5F). […]

[4] = tested on: ERK downstream substrates (MAPK target gene set); assay: mRNA sequencing of MAPK target gene set in RASK (KRAS) mutant cells; conditions: RNA-sequencing
Protocol: FIG. 2E is a graph showing the log 2 fold change in expression of a MAPK target gene set determined by mRNA sequencing in cancer cells treated with shARAF, shBRAF, or shCRAF. Cells were treated with 0.5 μg/mL doxycycline (DOX) for 72 hours. Cells were treated with a MEK inhibitor (GDC-0973) for 6 hours, 250 nM (n=3) or an ERK inhibitor (GDC-0994). Data are normalized to a non-targeting control (shNT) and DMSO (no DOX).
To confirm sustained MAPK activity in spite of RAF1 (CRAF) depletion, we performed a gene expression analysis for the MAPK downstream effectors DUSP6 and SPRTY upon RAF1 (CRAF) depletion in the examined RASK (KRAS) mutant cells lines. […] In order to delineate pathway alterations upon RAF1 (CRAF) depletion versus MAPK inhibition, RNA-sequencing analysis was performed. […] Thus, RAF kinases compensate to sustain MAPK signaling in comparison to MAPK inhibition.

[5] = tested on: A549 cancer cells depleted of RAF1 (CRAF); assay: Soft-agar colony formation assay in A549 cells treated with shCRAF and co-treated with cell death inhibitors; conditions: single agent; ZVAD-FMK 20 μM, NEC1 30 μM, Bafilomycin 50 nM
Protocol: FIG. 12G is a set of photomicrographs showing the results of a soft-agar colony formation assay in A549 cancer cells upon treatment with shCRAF and co-treatment with the indicated inhibitors. […] Cells were co-treated with DMSO or inhibitors for cellular apoptosis (ZVAD-FMK, 20 μM), necroptosis (NEC1, 30 μM) or a combination of both (ZVAD-FMK, 10 μM; NEC1, 10 μM) and an autophagy inhibitor (Bafilomycin, 50 nM).
As ARAF catalytic function inhibits cell growth upon RAF1 (CRAF) loss, mechanisms by which ARAF limits growth of RASK (KRAS) mutant cells were investigated. Given that MAPK inhibition is associated with induction of cellular apoptosis (Yen et al., Cancer Cell, 34: 611-625, 2018), it was hypothesized that RAF1 (CRAF) ablation induces cell death, similar to MAPK inhibition in RASK (KRAS) mutants. […] Additionally, RAF1 (CRAF) ablation in a […] isogenic RASK (KRAS) mutant cell line (HCT116 p21^−/−) rescued cell growth inhibition mediated upon RAF1 (CRAF) loss (FIG. 12A). […] A chemical inhibitor approach was adopted to test whether cell growth inhibition upon RAF1 (CRAF) loss could be rescued by the treatment with apoptosis or autophagic inhibitors. […] Finally, a Gene Set Enrichment Analysis (GSEA) of targets involved in the apoptosis pathway was performed, but no significant enrichment of any apoptosis target gene set was observed upon acute depletion of ARAF, BRAF or RAF1 (CRAF) (FIG. 12I). […] Thus, RAF1 (CRAF) depletion promotes p21-mediated cell cycle arrest in RASK (KRAS) mutant cancer cells. Further, co-depletion of RAF1 (CRAF) and ARAF in RASK (KRAS) mutant cells abrogated the expression levels of p21 (FIG. 4E).

Structure (SMILES) | cell survival of RAF1 (CRAF)-depleted cells [2] | cell survival of RAF1 (CRAF) ablated RASK (KRAS) mutant cells [2] | effect on expression of ERK downstream substrates (MAPK target gene set) [4] | rescue of cell growth in RAF1 (CRAF)-depleted RASK (KRAS) mutant cells [5] | other results
Cc1ccc(NC(=O)c2cccc(C(C)(C)C#N)c2)cc1Nc1ccc2ncn(C)c(=O)c2c1 [AZ-628] | – | – | – | – | sensitivity of colony growth to RAF dimer inhibition ([1]; ARAF ablation in RASK (KRAS) mutant cells): sensitized cells to RAF dimer inhibition; sensitivity of colony growth to RAF dimer inhibition ([1]; BRAF ablation in RASK (KRAS) mutant cells): less sensitive to RAF dimer inhibition
O=C(c1ccc(F)c(F)c1Nc1ccc(I)cc1F)N1CC(O)([C@@H]2CCCCN2)C1 [GDC-0973] | limited cell survival | promoted cell survival | induced suppression of ERK downstream substrates | – | effect on MAPK signaling (pMEK, pERK Western blot) (MAPK signaling): suppresses MAPK signaling; preferential RAF dimer association of CRAF wild-type (PIKES) [3]: promoted increased CRAF: BRAF dimers in comparison to CRAF: ARAF dimers; RAF heterodimers co-immunoprecipitated with FLAG-CRAF (RAF1:BRAF heterodimers): enriched for RAF1:BRAF heterodimers
Cn1nccc1Nc1nccc(-c2ccn([C@H](CO)c3ccc(Cl)c(F)c3)c(=O)c2)n1 [GDC-0994] | limited cell survival | promoted cell survival | induced suppression of ERK downstream substrates | – | –
CN1C(=O)C(Cc2c[nH]c3ccccc23)NC1=S (centres unmarked) [NEC1] | – | – | – | did not rescue cell growth | –
COC(=O)C[C@H](NC(=O)[C@H](C)NC(=O)[C@@H](NC(=O)OCc1ccccc1)C(C)C)C(=O)CF [Z-VAD-FMK] (Cbz-Val-Ala-Asp(OMe)-CH2F) | – | – | – | did not rescue cell growth | –
CO/C1=C\C(C)=C\[C@@H](C)[C@@H](O)[C@@H](C)C/C(C)=C/C=C/[C@H](OC)[C@@H]([C@@H](C)[C@@H](O)[C@H](C)[C@@]2(O)C[C@@H](O)[C@H](C)[C@@H](C(C)C)O2)OC1=O [bafilomycin] | – | – | – | did not rescue cell growth | –
